Results from patent US20220017520A1, “MACROCYCLIC COMPOUND AS CDK INHIBITOR, PREPARATION METHOD THEREFOR, AND USE THEREOF IN MEDICINE” (Keythera (Suzhou) Pharmaceuticals Co. Ltd., priority 2018, published 2022).

Experiments:
[1] = test system: metastatic breast cancer; settings: drug alone, patients with hormone receptor-positive metastatic breast cancer, Phase I; cited from earlier work
[2] = test system: MCF-7 cells; assay: In vitro cell proliferation assay by BrdU method; format: cell-based; settings: 72 hours, 10% FBS
Method: In Vitro Cell Inhibitory Activity of the Compound of the Present Invention
Experimental method: Cell proliferation assay was carried out by BrdU method (BrdU cell proliferation assay kit, Cell Signaling Technology Co.)
Preparation of gradient dilution solution of test compound: the 10 mM stock solution of test compound was subjected to 4-fold serial gradient dilution with DMSO to obtain solutions with a concentration of 2.5 mM, […], respectively. 2 μL of DMSO-diluted compound was added to 198 μL of culture medium containing 10% FBS to obtain 10-fold test compound, wherein the maximum concentration of the test compound was 10 μM, the DMSO concentration was 1%, with a total of 7 concentration gradients.
MCF-7 culture medium: DMEM+10% FBS+0.01 mg/mL insulin
(1) Cells grown to 80% (in exponential growth phase) were digested with pancreatin, and were collected by centrifugation. MDA-MB-435S cells and U87MG cells were re-suspended in a FBS-free culture medium, counted and inoculated to a 96-well plate; MDA-MB-435S cells were inoculated at 3000 cells/well/81 μL, and U87MG cells were inoculated at 4000 cells/well/81 μL. MCF-7 cells were resuspended in a culture medium containing 1% FBS, counted and inoculated to a 96-well plate at 4000 cell/well/82 μL. The cells were incubated in a cell incubator at 37° C.
(2) After 24 hours of incubation, FBS (9 μL) was added to each well of the MDA-MB-435S cells and U87MG cells, and 8 μL of FBS was added to each well of the MCF-7 cells, so as to obtain a final FBS concentration of 10%.
(3) A different concentration of 10-fold test compound (10 μL) was added to each well to obtain a final concentration of test compound of 10 μM, 2.5 μM, 625 nM, 156 nM, 39 nM, 9.8 nM or 2.5 nM, respectively, with 3 repeated wells/group, and the cells were incubated at 37° C. for 72 hours.
(4) 10-fold BrdU solution (10 μL) was added to each well, and the cells were incubated in the incubator for 4 hours, followed by discarding the culture medium.
(5) Fixing/denaturation solution (10 μL) was added to each well, and the cells were incubated at room temperature for 30 minutes, followed by discarding the solution.
(6) 1-fold detection antibody solution (100 μL) was added to each well, the cells were incubated at room temperature for 1 hour, followed by discarding the solution, and the cells were washed with 1-fold washing solution (200 μL/well) three times.
(7) 1-fold HRP-labelled secondary antibody solution (100 μL) was added to each well, the cells were incubated at room temperature for 30 minutes, followed by discarding the solution, and the cells were washed with 1-fold washing solution (200 μL/well) three times.
(8) TMB substrate solution (100 μL) was added to each well, and the cells were incubated at room temperature for 30 minutes.
(9) Stop solution (100 μL) was added to each well, and the OD value at 450 nm was measured by a microplate reader.
1) Cell survival rate (%)=(ODtest compound−ODblank control)/(ODnormal cell control−ODblank control)×100%,
2) The data was processed by GraphPad Prism 5 software to obtain the curve and IC50 values.

IC50 [2]: 120 nM
Substance: Abemaciclib [LY2834219, reference compound]
clinical benefit rate [1]: 61%
